We go through 23 compounds from US10874743B2, “IRAK degraders and uses thereof” (Kymera Therapeutics, Inc., priority 2017, dated 2020).

This test deals with T1, IRAK4 (Homo sapiens, UniProt Q9NWZ3).
T1 sequence (Q9NWZ3 1-460): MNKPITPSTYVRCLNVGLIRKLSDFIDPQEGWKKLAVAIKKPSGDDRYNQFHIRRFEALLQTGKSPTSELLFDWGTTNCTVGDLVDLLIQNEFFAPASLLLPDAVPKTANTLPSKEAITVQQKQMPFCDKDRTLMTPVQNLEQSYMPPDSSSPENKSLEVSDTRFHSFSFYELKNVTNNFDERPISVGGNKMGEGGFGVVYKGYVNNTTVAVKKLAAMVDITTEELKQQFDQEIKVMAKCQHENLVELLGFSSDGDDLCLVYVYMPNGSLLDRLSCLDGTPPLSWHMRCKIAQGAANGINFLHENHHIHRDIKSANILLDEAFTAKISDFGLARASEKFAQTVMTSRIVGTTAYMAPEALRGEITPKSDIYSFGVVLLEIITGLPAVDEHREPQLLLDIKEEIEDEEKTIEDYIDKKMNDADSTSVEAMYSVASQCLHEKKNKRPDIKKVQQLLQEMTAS
Briefly: OCI-LY-10 degradation assay (western blot, % IRAK4 degraded after 4 hours). The conditions noted are these: OCI-LY10 cells; for OCI-LY10 % IRAK4 Degradation (0.01 uM) / OCI-LY10 % IRAK4 Degradation (0.1 uM) / OCI-LY10 % IRAK4 Degradation (1 uM): 4 hours; for OCI-LY10 % IRAK4 Degradation (0.01 uM): 0.01 uM compound; for OCI-LY10 % IRAK4 Degradation (0.1 uM): 0.1 uM compound; for OCI-LY10 % IRAK4 Degradation (1 uM): 1 uM compound; for OCI-LY10 % IRAK4 Degradation: IRAK4 degraded after 4 hours, western blot. Also noted: endogenous in cells; host or cells: OCI-LY10. Format: cell-based. The method, boiled down: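 IRAK4 loss after 4 h at 37° C was scored A (>50%), B (>20-50%) or C (<20%) from infrared western blots of RIPA lysates, 20-25 μg protein per lane. Compound was applied at 0.003-10 μM final to OCI-LY10 cells cultured in RPMI-1640 with 20% FBS and 55 μM 2-ME.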
(In general: In western blotting, separated proteins are transferred to a membrane and probed.)

Molecules are shown by their SMILES.

`NC(=O)c1nn(-c2ccc(CNCCOCCOCCOCCOCCCc3cccc4c3C(=O)N(C3CCC(=O)NC3=O)C4=O)cc2)cc1NC(=O)c1coc(-c2ccnc(NCC(F)(F)F)c2)n1` (centres unmarked) [I-322]: the “OCI-LY10 % IRAK4 Degradation (0.01 uM)” value was “C (<20% degradation)”, the “OCI-LY10 % IRAK4 Degradation (0.1 uM)” value is “C (<20% degradation)” and the “OCI-LY10 % IRAK4 Degradation (1 uM)” value is listed as “A (>50% degradation)”.

Consider `CC(C)(OCCNc1cccc2c1C(=O)N(C1CCC(=O)NC1=O)C2=O)C(F)CNC(=O)c1cnc(Nc2ccc3cnccc3n2)cc1NC1CC1` (centres unmarked) [I-74], for which the “OCI-LY10 % IRAK4 Degradation” value was “C (<20% degradation)”.

As to `Cn1c(=O)n(C2CCC(=O)NC2=O)c2ccc(CCCOCCOCCNCc3ccc(-n4cc(NC(=O)c5coc(-c6ccnc(NCC(F)(F)F)c6)n5)c(C(N)=O)n4)cc3)cc21` (centres unmarked) [I-327], the “OCI-LY10 % IRAK4 Degradation (0.01 uM)” value was “C (<20% degradation)”, the “OCI-LY10 % IRAK4 Degradation (0.1 uM)” value was “B (>20-50% degradation)” and the “OCI-LY10 % IRAK4 Degradation (1 uM)” value is “A (>50% degradation)”.

Turning to `NC(=O)c1nn(-c2ccc(C(=O)NCCOCCOCCNc3cccc4c3C(=O)N(C3CCC(=O)NC3=O)C4=O)nc2)cc1NC(=O)c1coc(-c2ccnc(NCC(F)(F)F)c2)n1` (centres unmarked) [I-143], the “OCI-LY10 % IRAK4 Degradation” value is on record as “B (>20-50% degradation)”.

As to `O=C1CCC(N2C(=O)c3cccc(NCCOCc4ccc(COCCNC(=O)[C@H]5CC[C@H](NC(=O)c6cnc(Nc7ccc8cnccc8n7)cc6NC6CC6)CC5)nc4)c3C2=O)C(=O)N1` (some centres unmarked) [I-41, 6-((1,6-naphthyridin-2-yl)amino)-4-(cyclopropylamino)-N-((1r,4r)-4-((2-((5-((2-((2-(2,6-dioxopiperidin-3-yl)-1,3-dioxoisoindolin-4-yl)amino)ethoxy)methyl)pyridin-2-yl)methoxy)ethyl)carbamoyl)cyclohexyl)nicotinamide], the “OCI-LY10 % IRAK4 Degradation” value was “C (<20% degradation)”.

In the case of `O=C1CCC(N2C(=O)c3cccc(NCCOCCOCCOC[C@H]4C[C@H](NC(=O)c5cnc(Nc6ccc7cnccc7n6)cc5NC5CC5)C4)c3C2=O)C(=O)N1` (some centres unmarked) [I-31], the “OCI-LY10 % IRAK4 Degradation” value is recorded as “C (<20% degradation)”.

On to `NC(=O)c1nn(-c2ccc(C(=O)NCCOCCOCCNc3cccc4c3C(=O)N(C3CCC(=O)NC3=O)C4=O)cc2)cc1NC(=O)c1coc(-c2ccnc(C3CC3)c2)n1` (centres unmarked) [I-424], for which the “OCI-LY10 % IRAK4 Degradation (0.01 uM)” value is “B (>20-50% degradation)”, the “OCI-LY10 % IRAK4 Degradation (0.1 uM)” value is “B (>20-50% degradation)” and the “OCI-LY10 % IRAK4 Degradation (1 uM)” value is given as “B (>20-50% degradation)”.

Regarding `N#Cc1cnc2c(cnn2-c2cc(NC3CC3)c(C(=O)NCC(F)COCCCCCNC(=O)COc3cccc4c3C(=O)N(C3CCC(=O)NC3=O)C4=O)cn2)c1` (centres unmarked) [I-102], the “OCI-LY10 % IRAK4 Degradation” value was “C (<20% degradation)”.

Consider `NC(=O)[C@@H](O)C[C@H]1CCc2sc3ncnc(O[C@H]4CC[C@H](N5CCN(CCOCCNc6cccc7c6C(=O)N(C6CCC(=O)NC6=O)C7=O)CC5)CC4)c3c21` (stereo partly drawn) [I-184, T(2R)-3-[(8R)-1-[4-[4-[2-[2-[[2-(2,6-dioxo-3-piperidyl)-1,3-dioxo-isoindolin-4-yl]amino]V ethoxy]ethyl]piperazin-1-yl]cyclohexoxy]-7,8-dihydro-6H-cyclopenta[4,5]thieno[1,2-c]pyrimidin-8-yl]-2-hydroxy-propanamide], for which the “OCI-LY10 % IRAK4 Degradation” value is on record as “C (<20% degradation)”.

As to `CC(C)(OCCOCCOCCOCCOCCNc1cccc2c1C(=O)N(C1CCC(=O)NC1=O)C2=O)C(F)CNC(=O)c1cnc(Nc2ncc(C#N)cc2F)cc1NC1CC1` (centres unmarked) [I-69], the “OCI-LY10 % IRAK4 Degradation” value is recorded as “C (<20% degradation)”.

Consider `CN(CCOCCCc1cccc2c1C(=O)N(C1CCC(=O)NC1=O)C2=O)C(=O)c1ccc(-n2cc(NC(=O)c3coc(-c4ccnc(NCC5CC5)c4)n3)c(C(N)=O)n2)cc1` (centres unmarked) [I-229], for which the “OCI-LY10 % IRAK4 Degradation (0.01 uM)” value is reported as “C (<20% degradation)”, the “OCI-LY10 % IRAK4 Degradation (0.1 uM)” value is “C (<20% degradation)” and the “OCI-LY10 % IRAK4 Degradation (1 uM)” value is listed as “C (<20% degradation)”.

As to `CN(CCOCCOCCCc1ccc2c(c1)C(=O)N(C1CCC(=O)NC1=O)C2=O)Cc1ccc(-n2cc(NC(=O)c3coc(-c4ccnc(NCC5CC5)c4)n3)c(C(F)F)n2)cc1` (centres unmarked) [I-310], the “OCI-LY10 % IRAK4 Degradation (0.01 uM)” value is on record as “C (<20% degradation)”, the “OCI-LY10 % IRAK4 Degradation (0.1 uM)” value is given as “A (>50% degradation)” and the “OCI-LY10 % IRAK4 Degradation (1 uM)” value was “A (>50% degradation)”.

As to `CC(=O)O[C@@H]1C[C@@H](C(=O)NCc2ccc(-n3cc(NC(=O)c4coc(-c5ccnc(NCC6CC6)c5)n4)c(C(F)F)n3)cc2)N(C(=O)[C@@H](NC(=O)COCCOCCOCCNc2cccc3c2C(=O)N(C2CCC(=O)NC2=O)C3=O)C(C)(C)C)C1` (some centres unmarked) [I-285], the “OCI-LY10 % IRAK4 Degradation (0.01 uM)” value is reported as “C (<20% degradation)”, the “OCI-LY10 % IRAK4 Degradation (0.1 uM)” value is listed as “C (<20% degradation)” and the “OCI-LY10 % IRAK4 Degradation (1 uM)” value was “B (>20-50% degradation)”.

For `Cc1ncsc1-c1ccc(CNC(=O)[C@@H]2C[C@@H](O)CN2C(=O)[C@@H](NC(=O)COCCCCCCCCNC(=O)c2ccc(-n3cc(NC(=O)c4coc(-c5ccnc(NCC(F)(F)F)c5)n4)c(C(N)=O)n3)cc2)C(C)(C)C)cc1` [I-125, N-[3-carbamoyl-1-[4-[8-[2-[[(1S)-1-[(2S,4R)-4-hydroxy-2-[[4-(4-methylthiazol-5-yl)phenyl]methylcarbamoyl]pyrrolidine-1-carbonyl]-2,2-dimethyl-propyl]amino]-2-oxo-ethoxy]octylcarbamoyl]phenyl]pyrazol-4-yl]-2-[2-(2,2,2-trifluoroethylamino)-4-pyridyl]oxazole-4-carboxamide], the “OCI-LY10 % IRAK4 Degradation” value is listed as “C (<20% degradation)”.

For `CC(COCC(F)CNC(=O)c1cnc(Nc2ccc3cnccc3n2)cc1NC1CC1)OCCOCCNc1cccc2c1C(=O)N(C1CCC(=O)NC1=O)C2=O` (centres unmarked) [I-70], the “OCI-LY10 % IRAK4 Degradation” value is reported as “C (<20% degradation)”.

As for `Cc1ncsc1-c1ccc(CNC(=O)[C@@H]2C[C@@H](O)CN2C(=O)[C@@H](NC(=O)COCCOCCOCCOCCOCCN2CCC(Nc3cccc(-c4cnc5ccc(C#N)cn45)n3)C2)C(C)(C)C)cc1` (some centres unmarked) [I-209], the “OCI-LY10 % IRAK4 Degradation” value is “C (<20% degradation)”.

On to `CN(CCOCCCc1cccc2c1C(=O)N(C1CCC(=O)NC1=O)C2=O)Cc1ccc(-n2cc(NC(=O)c3coc(-c4ccnc(NCC5CC5)c4)n3)c(C(F)F)n2)cc1` (centres unmarked) [I-362], for which the “OCI-LY10 % IRAK4 Degradation (0.01 uM)” value was “C (<20% degradation)”, the “OCI-LY10 % IRAK4 Degradation (0.1 uM)” value is given as “B (>20-50% degradation)” and the “OCI-LY10 % IRAK4 Degradation (1 uM)” value is listed as “A (>50% degradation)”.

For `NC(=O)c1nn(CCOCCOCCOCCNc2cccc3c2C(=O)N(C2CCC(=O)NC2=O)C3=O)cc1NC(=O)c1coc(-c2ccnc(NCC3CC3)c2)n1` (centres unmarked) [I-239], the “OCI-LY10 % IRAK4 Degradation (0.01 uM)” value is recorded as “C (<20% degradation)”, the “OCI-LY10 % IRAK4 Degradation (0.1 uM)” value is “C (<20% degradation)” and the “OCI-LY10 % IRAK4 Degradation (1 uM)” value is listed as “C (<20% degradation)”.

With `CN(CCCc1ccc2c(c1)C(=O)N(C1CCC(=O)NC1=O)C2=O)Cc1ccc(-n2cc(NC(=O)c3coc(-c4ccncc4)n3)c(C(N)=O)n2)cc1` (centres unmarked) [I-370], the “OCI-LY10 % IRAK4 Degradation (0.01 uM)” value is reported as “C (<20% degradation)”, the “OCI-LY10 % IRAK4 Degradation (0.1 uM)” value is on record as “B (>20-50% degradation)” and the “OCI-LY10 % IRAK4 Degradation (1 uM)” value is listed as “B (>20-50% degradation)”.

`N#Cc1cnc2c(cnn2-c2cc(NC3CC3)c(C(=O)N[C@H]3C[C@H](C(=O)NCCOCCOCCOCCOCCNc4cccc5c4C(=O)N(C4CCC(=O)NC4=O)C5=O)C3)cn2)c1` (some centres unmarked) [I-21, 6-(5-cyano-1H-pyrazolo[3,4-b]pyridin-1-yl)-4-(cyclopropylamino)-N-((1r,3r)-3-((14-((2-(2,6-dioxopiperidin-3-yl)-1,3-dioxoisoindolin-4-yl)amino)-3,6,9,12-tetraoxatetradecyl)carbamoyl)cyclobutyl)nicotinamide]: the “OCI-LY10 % IRAK4 Degradation” value was “C (<20% degradation)”.

With `O=C1CCC(N2C(=O)c3cccc(N4CCN(CCOCCOCCNCc5ccc(-n6cc(NC(=O)c7coc(-c8ccnc(NCC9CC9)c8)n7)c(C(F)F)n6)cc5)CC4)c3C2=O)C(=O)N1` (centres unmarked) [I-336], the “OCI-LY10 % IRAK4 Degradation (0.01 uM)” value is reported as “C (<20% degradation)”, the “OCI-LY10 % IRAK4 Degradation (0.1 uM)” value is recorded as “C (<20% degradation)” and the “OCI-LY10 % IRAK4 Degradation (1 uM)” value is recorded as “B (>20-50% degradation)”.

Consider `NC(=O)c1nn(CCCCCCOCCOCCNc2cccc3c2C(=O)N(C2CCC(=O)NC2=O)C3=O)cc1NC(=O)c1coc(-c2ccnc(NCC3CC3)c2)n1` (centres unmarked) [I-435, N-[3-carbamoyl-1-[6-[2-[2-[[2-(2,6-dioxo-3-piperidyl)-1,3-dioxo-isoindolin-4-yl]amino]ethoxy]ethoxy]hexyl]pyrazol-4-yl]-2-[2-(cyclopropylmethylamino)-4-pyridyl]oxazole-4-carboxamide], for which the “OCI-LY10 % IRAK4 Degradation (0.01 uM)” value is recorded as “C (<20% degradation)”, the “OCI-LY10 % IRAK4 Degradation (0.1 uM)” value is recorded as “C (<20% degradation)” and the “OCI-LY10 % IRAK4 Degradation (1 uM)” value is “C (<20% degradation)”.

As for `O=C1CCC(n2c(=O)oc3c(CCCOCCOCCNC(=O)c4ccc(-n5cc(NC(=O)c6coc(-c7ccnc(NCC(F)(F)F)c7)n6)c(C(F)F)n5)cc4)cccc32)C(=O)N1` (centres unmarked) [I-256], the “OCI-LY10 % IRAK4 Degradation (0.01 uM)” value was “B (>20-50% degradation)”, the “OCI-LY10 % IRAK4 Degradation (0.1 uM)” value was “A (>50% degradation)” and the “OCI-LY10 % IRAK4 Degradation (1 uM)” value is given as “A (>50% degradation)”.
